The test has as its target T1, Ba/F3 cell EGFR Exon20 ins NPH (Homo sapiens, UniProt P00533, INS773NPH).
T1 construct: expressed in transfected cells; host or cells: Ba/F3
Briefly: Ba/F3 cell proliferation suppression, EGFR Exon20 ins NPH. In kind it is cell-based. To be noted: GI50 class; Ba/F3 cell line with NPH inserted at Exon20 of EGFR; 72 hours. The procedure, abridged:
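Cells were seeded 24 h before dosing and then treated for 72 hours with compound at final concentrations of 0.3 nM to 50 um. Live cells were measured by CellTiter-Glo luminescence, and GI50 values were derived from growth ratio relative to control across three repeats.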
As to `C=CC(=O)Nc1cc(Nc2cc(N3OCC[C@@H]3c3ccc(Cl)cc3)ncn2)c(OC)cc1N1CC[C@H](N2CCOCC2)C1` [compound 734, N-(5-((6-((R)-3-(4-chlorophenyl)isoxazolidine-2-yl)pyrimidine-4-yl)amino)-4-methoxy-2-((S)-3-morpholinopyrolidine-1-yl)phenyl)acrylamide], the “Ba/F3 (NPH) Activity” value is given as “B (50 nM ≤ GI50 < 500 nM)”.

Take `C=CC(=O)Nc1cc(Nc2cc(N3OCC[C@@H]3c3cccc(Cl)c3F)ncn2)c(OC)cc1N1CCC(N2C[C@@H](C)N(C3CC3)C[C@H]2C)CC1` [Example 122, N-(5-((6-((R)-3-(3-chloro-2-fluorophenyl)isoxazolidine-2-yl)pyrimidine-4-yl)amino)-2-(4-((2R,5R)-4-cyclopropyl-2,5-dimethylpiperazine-1-yl)piperidine-1-yl)-4-methoxyphenyl) acrylamide]: the “Ba/F3 (NPH) Activity” value is on record as “A (GI50 < 50 nM)”. The value for `C=CCN1CCN(C2CCN(c3cc(OC)c(Nc4cc(N5OCC[C@@H]5c5cccc(Cl)c5F)ncn4)cc3NC(=O)C=C)CC2)CC1` [Example 90, N-(2-(4-(4-allylpiperazine-1-yl)piperidine-1-yl)-5-((6-(R-3-(3-chloro-2-fluorophenyl)isoxazolidine-2-yl)pyrimidine-4-yl)amino)-4-methoxyphenyl) acrylamide] was “A (GI50 < 50 nM)”; that for `C=CC(=O)Nc1cc(Nc2cc(N3OCC[C@@H]3c3ccc(F)c(Cl)c3)ncn2)c(OC)cc1N1CCC(N2CCN(C)[C@@H](C)C2)CC1` [compound 900, N-(5-((6-((R)-3-(3-chloro-4-fluorophenyl)isoxazolidine-2-yl)pyrimidine-4-yl)amino)-2-(4-((S)-3,4-dimethylpiperazine-1-yl)piperidine-1-yl)-4-methoxyphenyl) acrylamide] was “A (GI50 < 50 nM)”; that for `C=CC(=O)Nc1cc(Nc2cc(N3OCC[C@@H]3c3cccc(F)c3Cl)ncn2)c(OC)cc1N1CCC(N2CCN(C)CC2)CC1` [compound 560, N-(5-((6-((R)-3-(2-chloro-3-fluorophenyl)isoxazolidine-2-yl)pyrimidine-4-yl)amino)-4-methoxy-2-(4-(4-methylpiperazine-1-yl)piperidine-1-yl)phenyl) acrylamide] was “A (GI50 < 50 nM)”. For `C=CC(=O)Nc1cc(Nc2cc(N3OCC[C@@H]3c3cc(F)ccc3F)ncn2)c(OC)cc1N1CCC(N2CCN(C(C)C)CC2)CC1` [compound 303, N-(5-((6-((R)-3-(2,5-difluorophenyl)isoxazolidine-2-yl)pyrimidine-4-yl)amino)-2-(4-(4-isopropylpiperazine-1-yl)piperidine-1-yl)-4-methoxyphenyl) acrylamide], the “Ba/F3 (NPH) Activity” value is given as “A (GI50 < 50 nM)”. Then `C=CC(=O)Nc1cc(Nc2cc(N3OCC[C@H]3Cc3cccnc3)ncn2)c(OC)cc1N1CCC(N2C[C@H]3C[C@@H]2CO3)CC1` [compound 990, N-(2-(4-((1R,4R)-2-oxa-5-azabicyclo [2.2.1]heptane-5-yl)piperidine-1-yl)-4-methoxy-5-((6-((R)-3-(pyridine-3-ylmethyl)isoxazolidine-2-yl)pyrimidine-4-yl)amino)phenyl)acrylamide], with “B (50 nM ≤ GI50 < 500 nM)”; and `C=CC(=O)Nc1cc(Nc2cc(N3OCC[C@@H]3c3cc(F)cc(F)c3)ncn2)c(OC)cc1N1CCN(C2CC2)CC1` [compound 438, N-(2-(4-cyclopropylpiperazine-1-yl)-5-((6-((R)-3-(3,5-difluorophenyl)isoxazolidine-2-yl)pyrimidine-4-yl)amino)-4-methoxyphenyl) acrylamide], with “A (GI50 < 50 nM)”; and `C=CC(=O)Nc1cc(Nc2cc(N3OCC[C@@H]3c3cc(F)ccc3F)ncn2)c(OC)cc1N1CCC(N2CC3CCC(C2)O3)CC1` [compound 820, N-(2-(4-(8-oxa-3-azabicyclo[3.2.1]octan-3-yl)piperidine-1-yl)-5-((6-((R)-3-(2,5-difluorophenyl)isoxazolidine-2-yl)pyrimidine-4-yl)amino)-4-methoxyphenyl) acrylamide], with “A (GI50 < 50 nM)”.

As for `C=CC(=O)Nc1cc(Nc2cc(N3OCC[C@@H]3c3ccc(F)cc3)ncn2)c(OC)cc1N1CCC(N2CC[C@H](N(C)C)C2)CC1` [compound 811, N-(2-(4-((S)-3-(dimethylamino)pyrolidine-1-yl)piperidine-1-yl)-5-((6-((R)-3-(4-fluorophenyl)isoxazolidine-2-yl)pyrimidine-4-yl)amino)-4-methoxyphenyl) acrylamide], the “Ba/F3 (NPH) Activity” value was “A (GI50 < 50 nM)”. Then `C=CC(=O)Nc1cc(Nc2cc(N3OCC[C@@H]3c3ccc(F)c(Cl)c3F)ncn2)c(OC)cc1N1C[C@H](C)O[C@@H](C)C1` [compound 658, N-(5-((6-((R)-3-(3-chloro-2,4-difluorophenyl)isoxazolidine-2-yl)pyrimidine-4-yl)amino)-2-((2S,6S)-2,6-dimethylmorpholino)-4-methoxyphenyl) acrylamide], with “B (50 nM ≤ GI50 < 500 nM)”; and `C=CC(=O)Nc1cc(Nc2cc(N3OCC[C@@H]3c3cc(F)ccc3F)ncn2)c(OC)cc1N1CCC(N2C[C@@H](C)N(C3CC3)C[C@@H]2C)CC1` [Example 174, N-(2-(4-((2S,5R)-4-cyclopropyl-2,5-dimethylpiperazine-1-yl)piperidine-1-yl)-5-((6-((R)-3-(2,5-difluorophenyl)isoxazolidine-2-yl)pyrimidine-4-yl)amino)-4-methoxyphenyl) acrylamide], with “A (GI50 < 50 nM)”. `C=CC(=O)Nc1cc(Nc2cc(N3OCC[C@@H]3c3ccc(F)cc3F)ncn2)c(OC)cc1N1CCN(C2CC2)CC1` [compound 344, N-(2-(4-cyclopropylpiperazine-1-yl)-5-((6-((R)-3-(2,4-difluorophenyl)isoxazolidine-2-yl)pyrimidine-4-yl)amino)-4-methoxyphenyl) acrylamide]: the “Ba/F3 (NPH) Activity” value was “A (GI50 < 50 nM)”.

Take `C=CC(=O)Nc1cc(Nc2cc(N3OCC[C@@H]3c3ccc(F)c(Cl)c3)ncn2)c(OC)cc1N1CCOCC1` [compound 824, N-(5-((6-((R)-3-(3-chloro-4-fluorophenyl)isoxazolidine-2-yl)pyrimidine-4-yl)amino)-4-methoxy-2-morpholinophenyl) acrylamide]: the “Ba/F3 (NPH) Activity” value is recorded as “A (GI50 < 50 nM)”. In the case of `C=CC(=O)Nc1cc(Nc2cc(N3OCC[C@@H]3c3cccc(OC)c3)ncn2)c(OC)cc1N1CCC(N(C)C)CC1` [compound 731], the “Ba/F3 (NPH) Activity” value was “B (50 nM ≤ GI50 < 500 nM)”. Turning to `C=CC(=O)Nc1cc(Nc2cc(N3OCC[C@@H]3c3cccc(Cl)c3C)ncn2)c(OC)cc1N1CCC(N2CCN(C3CCC3)CC2)CC1` [Example 188, N-(5-((6-((R)-3-(3-chloro-2-methylphenyl)isoxazolidine-2-yl)pyrimidine-4-yl)amino)-2-(4-(4-cyclobutylpiperazine-1-yl)piperidine-1-yl)-4-methoxyphenyl) acrylamide], the “Ba/F3 (NPH) Activity” value was “A (GI50 < 50 nM)”. On to `C=CC(=O)Nc1cc(Nc2cc(N3OCC[C@@H]3Cc3ccccc3)ncn2)c(OC)cc1N1CC2CC1CN2C` (stereo partly drawn) [compound 969, N-(5-((6-((S)-3-benzylisoxazolidine-2-yl)pyrimidine-4-yl)amino)-4-methoxy-2-(5-methyl-2,5-diazabicyclo[2.2.1]heptane-2-yl)phenyl) acrylamide], for which the “Ba/F3 (NPH) Activity” value is “A (GI50 < 50 nM)”.

For the origin of these results see patent US12157730B2, “Heteroaryl derivative, method for producing same, and pharmaceutical composition comprising same as effective component” (VORONOI INC., priority 2019, dated 2024).
